Results taken from US9861640B2, “Medicament for treatment of Alzheimer's disease” (KEMPHYS LTD., priority 2013, dated 2018).

Assays:
APP23 mice = conditions: earlier study [15]; oral Am80 0.5 mg/kg/d for 14 weeks; 5-month-old APP23 mice; cited from earlier work
IDE = experiment: Immunoblot of IDE in brains of APP23 mice; format: in vivo, mouse; conditions: day 18, vs vehicle-treated APP23 mice, P<0.05
Experimental: APP23 mice begin forming amyloid deposits when they are 6 months old, but memory deficits in the MWM test appear quite early (before 3 months of age). Here, we used 8.5-month-old male APP23 mice and their WT littermates (C57BL/6J). We used stratified random sampling to divide mice (four to six per cage) into four groups to equalize the mean body weight of the study groups: mice given 0.5 mg/kg/d Am80, those given 5 mg/kg/d HX630, those given the mixture of 0.5 mg/kg/d Am80 and 5 mg/kg/d HX630, and those given the vehicle. Am80 and HX630 were suspended in 0.5% (w/v) carboxymethylcellulose solution and were orally administered to mice at 0.5 mg/kg (Am80) or 5 mg/kg (HX630) for 17 consecutive days (once daily at 18:00). Control animals received the same volume of 0.5% (w/v) carboxymethylcellulose solution orally, without the other compounds. We set the 0.5 mg/kg/d dose for Am80 on the basis that this had been found effective in other in vivo studies, such as those by Kawahara et al. and Ishido and Shudo [37]. Higher doses of Am80 (3 mg/kg/d and 6 mg/kg/d) were also orally administered to mice for 17 consecutive days. Animals were weighed once a week. Mice were subjected to behavioral testing on days 15-18 of the first oral administration of the compounds (at 19:00-23:00). On days 15-17 (not day 18), animals received the compounds at 24:00, after behavioral testing. […]

rat primary microglia = experiment: Clearance of 125I-labeled oligomeric Aβ1-42 by rat primary microglia; format: cell-based; conditions: 5 μM each 48 h, then 6 h with 125I-o-Aβ1-42 1 μg/ml, vs vehicle-treated cells
From the text: Primary microglia (type 1) were harvested from primary mixed glial cell cultures prepared from neonatal Wistar rat pups, as previously reported. Mouse microglial cell line MG5 and mouse glial cell line A1 were maintained as previously described. Mouse neuroblastoma cell line N1E-115 and Neuro 2a (American Type Culture Collection, Manassas, Va., USA) were maintained in Dulbecco's modified Eagle's medium (DMEM) supplemented with 10% fetal bovine serum (FBS), 20 U/ml penicillin (Invitrogen, Gaithersburg, Md., USA), and 20 μg/ml streptomycin (Invitrogen). Primary rat microglia were treated with Am80 (5 μM) and/or HX630 (5 μM) in the presence and absence of GW9662 (10 μM) for 48 h in Eagle's MEM supplemented with 10% FBS and 0.2% glucose. MG5 cells and A1 cells were treated with Am80 (5 μM) and/or HX630 (5 μM) for 48 h in DMEM containing 10% FBS. N1E-115 cells were treated with Am80 (5 μM) and/or HX630 (5 μM) for 5 days in DMEM containing 2% FBS.
^125I-Labeled oligomeric Aβ1-42 (o-Aβ1-42) was prepared as described. Cells were cultured in 24-well plates for 48 h in Eagle's MEM supplemented with 10% FBS in the presence or absence of Am80 (5 μM) and HX630 (5 μM). After the 48-h treatment, the cells were washed twice with labeling medium (DMEM containing 3% BSA) and then incubated with ^125I-labeled o-Aβ1-42 for 6 h at 37° C. Following the 6-h incubation, medium was removed from each well, and soluble radioactivity in TCA (degraded and extracellularly released peptide fragments) was determined as an index of Aβ degradation in the medium as described previously. The Aβ degradation activity may thus include both receptor-mediated phagocytic activity and extracellular protease-mediated degradation. Cells were washed three times with PBS, then lysed with 0.4 ml of 0.1 M NaOH for 30 min at 37° C., and cell-associated (including cell-incorporated) radioactivity and cell proteins were determined with an autogamma counter and the BCA Protein Assay Reagent (Pierce), respectively. We could not determine the activity of IDE-dependent degradation in this medium, because the incubation medium was replaced with labeling medium prior to incubation with ^[…].

CC1(C)CCC(C)(C)c2cc(NC(=O)c3ccc(C(=O)O)cc3)ccc21 [Am80, 4-{(5,6,7,8-tetrahydro-5,5,8,8-tetramethyl-2-naphthalenyl)carbamoyl}benzoic acid]
behavioral benefits (APP23 mice): did not detect behavioral benefits

CN1c2ccccc2N=C(c2ccc(C(=O)O)cc2)c2cc3c(cc21)C(C)(C)CCC3(C)C [HX630, 4-[5H-2,3-(2,5dimethyl-2,5-hexano)-5-methyldibenzo[b,e]-diazepin-11-yl]benzoic acid]
IDE protein level in the membrane-bound fraction (IDE): increased significantly
degradation activity towards 125I-labeled oligomeric Aβ1-42 (rat primary microglia): increased
